Where a name gives a salt, the structure may show the parent alone. Read-outs that look alike come from different tables or passages of the source.

This assay has as its target T1, Cav2.2 (Homo sapiens, UniProt Q00975).
T1 construct: expressed in transfected cells; host or cells: HEK-293T/17 (transient, FuGENE 6)
Put plainly: HEK assay (whole-cell patch clamp, transiently transfected HEK-293T/17 cells, pulses P1 and P5). The class given is cell-based. The conditions noted are these: holding potential −100 mV. The method, then: HEK-293T/17 cells were transiently transfected in a similar manner as described in FuGENE 6 Package Insert Version 7, April 2002, Roche Applied Science, Indianapolis, Ind. The cells were plated at 2.5×10^5 cells in 2 mL in a 6-well plate, incubated for one night, and achieved a ˜30-40% confluence. In a small sterile tube, sufficient serum-free medium was added as diluent for FuGENE Transfection Reagent (Roche Applied Science, Indianapolis, Ind.) to a total volume of 100 μL. To this medium was added 3 μL of FuGENE 6 Reagent. The mixture was tapped gently to mix. To the prediluted FuGENE 6 Reagent was added 2 μg of DNA solution (0.8-2.0 μg/μL). The DNA/Fugene 6 mixture was gently pipeted to mix the contents and incubated for about 15 minutes at room temperature. The complex mixture was then added to the HEK-293T/17 cells, distributed around the well, and swirled to ensure even dispersal. The cells were returned to the incubator for 24 hours. The transfected cells were then replated at density 2.5×10^5 in a 35 mm dish with 5 glass coverslips and grew in low serum (1%) media for 24 hours. Coverslips with isolated cells were then transferred into a chamber, and calcium channel (e.g., L-type, N-type, etc.) current or other currents for counter screening were recorded from the transiently transfected HEK-293T/17 cells.
The whole-cell voltage clamp configuration of the patch clamp technique was employed to evaluate voltage-dependent calcium currents essentially as described by Thompson and Wong (1991), J. Physiol., 439: 671-689, the entire disclosure of which is herein incorporated by reference. To record calcium channel (e.g., L-type, N-type, etc.) currents for evaluation of inhibitory potency of compounds (steady-state concentration-response analysis), five pulses of 20-30 ms voltage steps to about +10 mV (the peak of the current voltage relationship) were delivered at five Hz every 30 second from a holding potential at −100 mV. In order to obtain an estimate of the degree of use-dependent block of the test compounds, IC50 values were determined at the first and fifth pulse of the train (P1 and P5, respectively, in Table 2). Compound evaluations were carried out essentially as described by Sah D. W. and Bean B. P. (1994), Mol. Pharmacol., 45:84-92, the entire disclosure of which is herein incorporated by reference.
In general terms: The patch-clamp technique gives a direct electrical read-out from membranes.

Setting [1] is: fifth pulse (P5) of 5 Hz train, read-out: HEK Cav2.2 P5 IC50.
Setting [2] is: first pulse (P1) of 5 Hz train, read-out: HEK Cav2.2 P1 IC50.

T1 sequence (Q00975 whole entry): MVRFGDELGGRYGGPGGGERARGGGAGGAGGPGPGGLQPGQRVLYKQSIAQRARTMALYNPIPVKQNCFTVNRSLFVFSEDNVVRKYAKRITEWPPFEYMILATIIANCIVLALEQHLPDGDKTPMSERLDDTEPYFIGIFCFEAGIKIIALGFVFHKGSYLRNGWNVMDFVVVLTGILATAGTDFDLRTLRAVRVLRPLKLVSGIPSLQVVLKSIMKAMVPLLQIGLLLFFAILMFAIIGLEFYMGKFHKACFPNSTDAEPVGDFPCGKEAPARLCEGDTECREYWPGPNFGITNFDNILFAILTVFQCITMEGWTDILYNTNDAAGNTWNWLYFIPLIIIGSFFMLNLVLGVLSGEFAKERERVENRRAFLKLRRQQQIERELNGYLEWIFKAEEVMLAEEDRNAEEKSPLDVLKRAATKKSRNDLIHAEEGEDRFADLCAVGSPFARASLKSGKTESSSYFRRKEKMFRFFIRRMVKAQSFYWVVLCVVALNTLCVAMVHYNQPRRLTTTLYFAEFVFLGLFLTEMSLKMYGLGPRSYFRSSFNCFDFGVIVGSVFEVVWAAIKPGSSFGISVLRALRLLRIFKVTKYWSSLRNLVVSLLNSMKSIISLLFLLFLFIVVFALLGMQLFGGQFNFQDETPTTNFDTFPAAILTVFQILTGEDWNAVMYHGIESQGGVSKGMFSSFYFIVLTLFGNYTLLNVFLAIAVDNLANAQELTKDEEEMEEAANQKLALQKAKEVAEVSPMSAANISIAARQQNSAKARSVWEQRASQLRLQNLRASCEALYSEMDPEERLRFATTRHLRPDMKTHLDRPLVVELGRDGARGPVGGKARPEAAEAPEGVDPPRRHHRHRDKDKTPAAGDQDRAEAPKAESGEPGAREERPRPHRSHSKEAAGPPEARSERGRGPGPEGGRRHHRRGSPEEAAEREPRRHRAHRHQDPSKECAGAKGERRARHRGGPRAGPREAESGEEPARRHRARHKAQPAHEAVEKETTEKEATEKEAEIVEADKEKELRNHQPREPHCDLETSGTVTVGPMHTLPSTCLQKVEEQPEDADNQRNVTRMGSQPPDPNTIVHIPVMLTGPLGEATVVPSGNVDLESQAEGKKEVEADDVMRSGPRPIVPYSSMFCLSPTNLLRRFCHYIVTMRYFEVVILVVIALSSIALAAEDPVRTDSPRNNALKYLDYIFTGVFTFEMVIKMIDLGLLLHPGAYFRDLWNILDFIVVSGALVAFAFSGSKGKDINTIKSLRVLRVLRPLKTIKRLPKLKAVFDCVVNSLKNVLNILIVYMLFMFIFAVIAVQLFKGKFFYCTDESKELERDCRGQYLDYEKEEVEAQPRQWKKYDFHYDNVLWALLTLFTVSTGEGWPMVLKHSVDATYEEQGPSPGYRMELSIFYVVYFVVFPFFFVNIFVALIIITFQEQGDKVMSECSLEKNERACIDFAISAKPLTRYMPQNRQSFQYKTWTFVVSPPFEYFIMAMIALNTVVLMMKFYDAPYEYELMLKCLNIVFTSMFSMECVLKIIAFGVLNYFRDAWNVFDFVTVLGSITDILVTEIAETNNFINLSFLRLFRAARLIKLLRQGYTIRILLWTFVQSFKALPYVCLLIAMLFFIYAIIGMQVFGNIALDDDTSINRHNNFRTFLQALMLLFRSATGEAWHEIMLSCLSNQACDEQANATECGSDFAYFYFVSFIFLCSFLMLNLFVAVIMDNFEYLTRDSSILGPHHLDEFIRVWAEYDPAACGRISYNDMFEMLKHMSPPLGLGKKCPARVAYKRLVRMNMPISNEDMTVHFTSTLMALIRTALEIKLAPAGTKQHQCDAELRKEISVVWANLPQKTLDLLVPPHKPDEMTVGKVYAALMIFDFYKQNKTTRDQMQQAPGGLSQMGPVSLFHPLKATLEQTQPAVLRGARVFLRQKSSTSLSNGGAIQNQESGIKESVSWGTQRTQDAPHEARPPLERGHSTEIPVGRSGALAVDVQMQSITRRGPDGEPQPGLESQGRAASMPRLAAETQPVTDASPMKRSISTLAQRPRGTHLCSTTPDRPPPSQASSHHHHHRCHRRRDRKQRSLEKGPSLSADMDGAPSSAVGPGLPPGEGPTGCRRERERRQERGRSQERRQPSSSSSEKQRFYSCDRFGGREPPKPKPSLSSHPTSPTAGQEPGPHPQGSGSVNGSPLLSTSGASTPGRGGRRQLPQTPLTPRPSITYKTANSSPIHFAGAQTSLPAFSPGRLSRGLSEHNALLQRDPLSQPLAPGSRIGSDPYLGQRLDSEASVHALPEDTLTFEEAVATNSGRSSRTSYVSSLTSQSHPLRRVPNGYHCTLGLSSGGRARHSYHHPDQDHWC
T1 sequence (P54284 whole entry partner): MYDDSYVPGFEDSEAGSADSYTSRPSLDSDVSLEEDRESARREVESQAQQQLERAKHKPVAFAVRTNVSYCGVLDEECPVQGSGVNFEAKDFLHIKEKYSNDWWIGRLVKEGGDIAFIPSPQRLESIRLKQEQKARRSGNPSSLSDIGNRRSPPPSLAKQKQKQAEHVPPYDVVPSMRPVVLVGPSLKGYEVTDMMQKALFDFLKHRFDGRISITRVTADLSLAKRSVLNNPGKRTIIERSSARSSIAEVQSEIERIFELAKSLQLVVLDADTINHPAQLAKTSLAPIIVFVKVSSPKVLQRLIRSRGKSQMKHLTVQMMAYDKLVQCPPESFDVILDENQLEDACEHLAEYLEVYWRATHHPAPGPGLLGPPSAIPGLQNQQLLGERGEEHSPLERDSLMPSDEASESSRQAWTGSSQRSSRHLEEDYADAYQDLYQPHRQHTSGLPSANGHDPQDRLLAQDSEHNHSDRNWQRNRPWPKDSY
T1 sequence (P54289 25-946 partner limits assumed): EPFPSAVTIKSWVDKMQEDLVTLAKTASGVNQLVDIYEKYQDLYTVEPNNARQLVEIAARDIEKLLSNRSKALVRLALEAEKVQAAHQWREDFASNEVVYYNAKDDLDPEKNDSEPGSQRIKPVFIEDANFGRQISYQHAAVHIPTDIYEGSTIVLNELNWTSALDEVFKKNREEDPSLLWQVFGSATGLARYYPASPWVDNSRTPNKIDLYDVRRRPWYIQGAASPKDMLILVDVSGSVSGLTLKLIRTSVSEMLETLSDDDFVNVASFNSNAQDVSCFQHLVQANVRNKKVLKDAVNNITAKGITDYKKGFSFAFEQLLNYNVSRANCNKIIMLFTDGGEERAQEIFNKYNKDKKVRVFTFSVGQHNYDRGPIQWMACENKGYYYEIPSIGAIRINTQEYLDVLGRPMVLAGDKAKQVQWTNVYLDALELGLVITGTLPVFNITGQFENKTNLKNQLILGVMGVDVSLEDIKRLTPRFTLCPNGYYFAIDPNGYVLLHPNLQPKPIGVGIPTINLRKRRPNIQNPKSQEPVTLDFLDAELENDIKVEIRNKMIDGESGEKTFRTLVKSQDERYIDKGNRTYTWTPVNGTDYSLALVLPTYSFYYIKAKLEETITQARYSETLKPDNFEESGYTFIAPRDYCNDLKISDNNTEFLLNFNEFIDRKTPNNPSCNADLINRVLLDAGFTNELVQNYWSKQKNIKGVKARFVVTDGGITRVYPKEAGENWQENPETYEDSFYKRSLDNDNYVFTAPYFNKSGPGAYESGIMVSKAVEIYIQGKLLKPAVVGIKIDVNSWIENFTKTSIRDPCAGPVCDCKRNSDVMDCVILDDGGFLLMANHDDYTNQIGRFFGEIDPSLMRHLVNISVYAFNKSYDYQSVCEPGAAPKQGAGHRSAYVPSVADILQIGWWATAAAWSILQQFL
T1 sequence (P54289 947-1103 partner limits assumed): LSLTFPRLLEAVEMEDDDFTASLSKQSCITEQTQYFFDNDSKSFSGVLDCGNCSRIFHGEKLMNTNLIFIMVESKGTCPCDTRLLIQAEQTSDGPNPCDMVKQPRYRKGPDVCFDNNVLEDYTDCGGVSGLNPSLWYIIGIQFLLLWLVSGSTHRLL

In general, IC50 refers to the concentration at which inhibition is half-maximal. As for `CC(C)(C)C(=O)N(Cc1ccc(N2CC[C@H](Oc3ccccn3)C2)nc1)c1ccc(F)cc1` (stereo in doubt) [Compound 50, N-(4-Fluorophenyl)-2,2-dimethyl-N-{6-[3-(pyridin-2-yloxy)-pyrrolidin-1-yl]-pyridin-3-ylmethyl}-propionamide], the IC50 is, setting by setting: under setting [1], 0.8 µM; under setting [2], 3.7 µM.
For the compound `CC(C)(C)C(=O)N(Cc1cnc(N2CCCC2)s1)c1ccc(F)cc1` [Compound 1, N-(4-fluorophenyl)-2,2-dimethyl-N-(2-pyrrolidin-1-yl-thiazol-5-ylmethyl)-propionamide hydrochloride], the IC50 came out at 8.3 µM under setting [1] and 20.3 µM under setting [2].
On the same counts, the results for `CCN(CC)c1cccc(CN(C(=O)C(C)(C)C)c2ccc(F)cc2)n1` [Compound 4, N-(6-diethylamino-pyridin-2-ylmethyl)-N-(4-fluorophenyl)-2,2-dimethyl-propionamide hydrochloride] are 0.8 µM and 2.9 µM.
The corresponding values for `CCN(CC)c1ccc(CN(C(=O)C(C)(C)C)c2ccc(F)cc2)cc1` [Compound 5, N-(4-Diethylaminobenzyl)-N-(4-fluorophenyl)-2,2-dimethyl-propionamide hydrochloride] are 1.1 µM and 2.9 µM.
The corresponding values for `CCN(c1cccc(CN(C(=O)C(C)(C)C)c2ccc(F)cc2)c1)C1CC1` [Compound 6, N-(3-(Cyclopropyl(ethyl)amino)-benzyl)-N-(4-fluorophenyl)-2,2-dimethyl-propionamide hydrochloride] are 1.5 µM and 6.2 µM.
`CCN(c1ccc(CN(C(=O)C2CCN(Cc3ccccc3)CC2)c2ccc(F)cc2)cn1)C1CC1` [Compound 12, 1-benzyl-piperidine-4-carboxylic acid [6-(Cyclopropyl(ethyl)amino)-pyridin-3-ylmethyl]-(4-fluorophenyl)-amide dihydrochloride]: the IC50 by setting is: under setting [1], 0.4 µM; under setting [2], 1 µM.
For the compound `CCN(c1ccc(CN(C(=O)CCC(C)C)c2ccc(F)cc2)cn1)C1CC1` [Compound 13, 4-methyl-pentanoic acid [6-(Cyclopropyl(ethyl)amino)-pyridin-3-ylmethyl]-(4-fluorophenyl)-amide hydrochloride], the IC50 under setting [1] was found to be 1.8 µM.
For the compound `CCN(c1ccc(CN(C(=O)C2Cc3ccccc3CN2)c2ccc(F)cc2)cn1)C1CC1` (stereo not drawn) [Compound 14, 1,2,3,4-tetrahydro-isoquinoline-3-carboxylic acid [6-(Cyclopropyl(ethyl)amino)-pyridin-3-ylmethyl]-(4-fluorophenyl)-amide dihydrochloride], the IC50 turned out to be 0.6 µM under setting [1] and 10.1 µM under setting [2].
The corresponding values for `CCN(c1ccc(CN(C(=O)C2Cc3ccccc3CN2C)c2ccc(F)cc2)cn1)C1CC1` (stereo not drawn) [Compound 15, 2-methyl-1,2,3,4-tetrahydro-isoquinoline-3-carboxylic acid [6-(Cyclopropyl(ethyl)amino)-pyridin-3-ylmethyl]-(4-fluorophenyl)-amide dihydrochloride] are 0.4 µM and 2.1 µM.
As to `CC(CC(=O)N(Cc1ccc(N(C)CCc2ccccn2)nc1)c1ccc(F)cc1)C(F)(F)F` (stereo not drawn) [Compound 23, 4,4,4-Trifluoro-N-(4-fluorophenyl)-3-methyl-N-{6-[methyl-(2-pyridin-2-yl-ethyl)-amino]-pyridin-3-ylmethyl}-butyramide], the IC50 under setting [1] was 1.1 µM.
Turning to `CCN(CC)c1ccc(CN(C(=O)C(C)(C)C)c2ccc(F)cc2C)cn1` [Compound 36, N-(6-Diethylamino-pyridin-3-ylmethyl)-N-(4-fluoro-2-methyl-phenyl)-2,2-dimethyl-propionamide], the IC50 runs as follows: under setting [1], 1.3 µM; under setting [2], 3.5 µM.
On the same counts, the results for `CCN(CC)c1ccc(CN(C(=O)C(C)(C)C)c2ccccc2C(C)C)cn1` [Compound 37, N-(6-Diethylamino-pyridin-3-ylmethyl)-N-(2-isopropyl-phenyl)-2,2-dimethyl-propionamide] are 0.7 µM and 1.8 µM.
As to `CN(CCO)c1ccc(CN(C(=O)C(C)(C)C)c2ccc(F)cc2)cn1` [Compound 38, N-(4-Fluorophenyl)-N-{6-[(2-hydroxy-ethyl)-methyl-amino]-pyridin-3-ylmethyl}-2,2-dimethyl-propionamide], the concentration for half-maximal inhibition (IC50) was determined as 7.6 µM under setting [1] and 17.1 µM under setting [2].
Consider `Cc1ccc(OCCN(C)c2ccc(CN(C(=O)C(C)(C)C)c3ccc(F)cc3)cn2)nc1` [Compound 39, N-(4-Fluorophenyl)-2,2-dimethyl-N-(6-{methyl-[2-(5-methyl-pyridin-2-yloxy)-ethyl]-amino}-pyridin-3-ylmethyl)-propionamide], for which the IC50 came out at 0.5 µM under setting [1] and 1 µM under setting [2].
The corresponding values for `Cc1ccc(OCCN(C)c2ccc(CN(C(=O)C(C)(C)C)c3ccc(F)cc3)cn2)nn1` [Compound 40, N-(4-Fluorophenyl)-2,2-dimethyl-N-(6-{methyl-[2-(6-methyl-pyridazin-3-yloxy)-ethyl]-amino}-pyridin-3-ylmethyl)-propionamide] are 11.2 µM and 21 µM.
The corresponding values for `CCN(Cc1ccncc1)c1ccc(CN(C(=O)C(C)(C)C)c2ccc(F)cc2)cn1` [Compound 41, N-[6-(Ethyl-pyridin-4-ylmethyl-amino)-pyridin-3-ylmethyl]-N-(4-fluorophenyl)-2,2-dimethyl-propionamide] are 2 µM and 6.3 µM.
The corresponding values for `CC(C)(C)C(=O)N(Cc1ccc(N2CCCC2)nc1)c1ccc(F)cc1` [Compound 42, N-(4-Fluorophenyl)-2,2-dimethyl-N-(6-pyrrolidin-1-yl-pyridin-3-ylmethyl)-propionamide] are 7.4 µM and 11.6 µM.
`CCC(C)(C)C(=O)N(Cc1ccc(N2CCN(S(C)(=O)=O)CC2)nc1)c1ccc(F)cc1` [Compound 43, N-(4-Fluorophenyl)-N-[6-(4-methanesulfonyl-piperazin-1-yl)-pyridin-3-ylmethyl]-2,2-dimethyl-butyramide]: the IC50 turned out to be 3 µM under setting [1] and 10.2 µM under setting [2].
On the same counts, the results for `CC(=O)N1CCN(c2ccc(CN(C(=O)C(C)(C)C)c3ccc(F)cc3)cn2)CC1` [Compound 44, N-[6-(4-Acetyl-piperazin-1-yl)-pyridin-3-ylmethyl]-N-(4-fluorophenyl)-2,2-dimethyl-propionamide] are 7.5 µM and 18.4 µM.
On the same counts, the results for `CCOC(=O)c1cn(C(C)(C)C(=O)N(Cc2ccc(N(CC)CC)nc2)c2ccc(F)cc2)nn1` [Compound 45, 1-{1-[(6-Diethylamino-pyridin-3-ylmethyl)-(4-fluorophenyl)-carbamoyl]-1-methyl-ethyl}-1H-[1,2,3]triazole-4-carboxylic acid ethyl ester] are 2.5 µM and 10.6 µM.
As to `CN(CCOCc1cccnc1)c1ccc(CN(C(=O)C(C)(C)C)c2ccc(F)cc2)cn1` [Compound 47, N-(4-Fluorophenyl)-2,2-dimethyl-N-(6-{methyl-[2-(pyridin-3-ylmethoxy)-ethyl]-amino}-pyridin-3-ylmethyl)-propionamide], the IC50 under setting [1] worked out at 1.6 µM and the IC50 under setting [2] is 9.5 µM.
As for `CC(C)(C)C(=O)N(Cc1ccc(N2CCCC2CO)nc1)c1ccc(F)cc1` (stereo not drawn) [Compound 48, N-(4-Fluorophenyl)-N-[6-(2-hydroxymethyl-pyrrolidin-1-yl)-pyridin-3-ylmethyl]-2,2-dimethyl-propionamide], the IC50 reads like this: under setting [1], 4.2 µM; under setting [2], 19.8 µM.
On to `CC(C)(C)C(=O)N(Cc1ccc(N2CCC[C@H]2COc2ccccn2)nc1)c1ccc(F)cc1` [Compound 49, N-(4-Fluorophenyl)-2,2-dimethyl-N-{6-[2-(pyridin-2-yloxymethyl)-pyrrolidin-1-yl]-pyridin-3-ylmethyl}-propionamide], for which the IC50 reads like this: under setting [1], 0.6 µM; under setting [2], 2.3 µM.
Turning to `CC(C)(C)C(=O)N(Cc1ccc(N2CC[C@H](O)C2)nc1)c1ccc(F)cc1` [Compound 51, N-(4-Fluorophenyl)-N-[6-(3-hydroxy-pyrrolidin-1-yl)-pyridin-3-ylmethyl]-2,2-dimethyl-propionamide], the IC50 was 12.8 µM under setting [1] and 34 µM under setting [2].
The corresponding values for `CCN(CC)C1CCN(c2ccc(CN(C(=O)C(C)(C)C)c3ccc(F)cc3)cn2)C1` (stereo not drawn) [Compound 52, N-[6-(3-Diethylamino-pyrrolidin-1-yl)-pyridin-3-ylmethyl]-N-(4-fluorophenyl)-2,2-dimethyl-propionamide] are 6.3 µM and 17.1 µM.
